Values of other authors in patent publication US20220257802A1, “COMPRESSED SOLID COMPOSITION FOR MRI” (Ascelia Pharma AB, priority 2019, published 2022).

Conditions: after oral intake

Compound: [Mn+2] [manganese]
- first-pass effect in the liver: up to 98%
